# Where no end group is shown, it is not given here.
# How the values were obtained:
# NKG2A+/NKG2C− NK cells = experiment: NK cell activation markers in NKG2A+/NKG2C- NK cells incubated with peptide and K562 expressing HLA-E (inhibition); type: cell-based, human; conditions: for effect on NKG2A+/NKG2C− NK cell inhibition (in words): K562 expressing HLA-E, CD107a, IFNG, TNF, CCL3; for percentage of CCL3+ NK cells / percentage of CD107a+ NK cells / percentage of IFNG+ NK cells / percentage of TNF+ NK cells: NKG2A+/NKG2C- NK cells, K562/HLA-E
# Procedure, shortened: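 Percent-positive cells for NK activation surface markers were measured after NK cells met peptide-treated K562 cells expressing HLA-E. A decrease in that fraction was scored as inhibition and an increase as activation; NKG2A−/NKG2C− cells served as controls.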
# CD94/NKG2A = CD94/NKG2A (Homo sapiens, UniProt P26715+Q13241); experiment: Steady-state surface plasmon resonance of peptide-HLA-E complex with CD94/NKG2A; type: binding; conditions: for Binding of peptide-HLA-E complexes to CD94/NKG2A normalized to a theoretical Rmax: steady-state SPR
# CD94/NKG2A, sequence (P26715 94-233 limits assumed): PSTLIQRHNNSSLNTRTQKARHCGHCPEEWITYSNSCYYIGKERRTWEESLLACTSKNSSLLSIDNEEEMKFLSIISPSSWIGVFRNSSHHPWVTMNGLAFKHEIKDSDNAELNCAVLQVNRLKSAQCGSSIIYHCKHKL
# CD94/NKG2A, sequence (Q13241 32-179 limits assumed): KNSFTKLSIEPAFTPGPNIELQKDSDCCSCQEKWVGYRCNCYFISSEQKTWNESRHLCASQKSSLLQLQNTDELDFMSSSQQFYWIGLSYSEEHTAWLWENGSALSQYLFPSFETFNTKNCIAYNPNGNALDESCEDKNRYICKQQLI
# Description: Binding affinity of novel peptides linked to HLA-E was determined using surface plasmon resonance (SPR), a methodology used to study protein-protein interactions (Tables 15-19). The peptide-HLA-E complex (generated as a single chain trimer) was immobilized on the sensor chip surface and CD94/NKG2A or CD94/NKG2C were flowed over. Steady-state surface plasmon resonance experiments were performed with a Biacore T200 instrument. CD94/NKG2x in HBS-EP+ buffer was injected as analyte in a concentration range of 0.1 μM to 102.4 μM and flow rate of 10 μL/min at 25° C. Data was fit with Prism 9.4 (GraphPad Software Inc; San Diego CA) to a “one site, specific binding” model. Series S CM5 chips were coupled to neutravidin and utilized. Biotinylated pMHC was immobilized at approximately 400 RU. KD values calculated by Biacore software are reported. Rmax, fit values were calculated by Biacore software. Rmax, theoretical values were calculated using the analyte/ligand mass ratio (0.66) multiplied by the amount of ligand coupled to the chip.
sequence,measurement,setting,value
"TGPWRSLWI [human3, TGPWRSLWI]",effect on NKG2A+/NKG2C− NK cell inhibition (in words),NKG2A+/NKG2C− NK cells; listed as SEQ ID NO. 2,no or minimal effect
same,effect on NKG2A+/NKG2C− NK cell inhibition (in words),NKG2A+/NKG2C− NK cells; listed as h3,no effect
same,percentage of CCL3+ NK cells,NKG2A+/NKG2C− NK cells; Trial 1,54.6%
same,percentage of CD107a+ NK cells,NKG2A+/NKG2C− NK cells; Trial 1,34.8%
same,percentage of IFNG+ NK cells,NKG2A+/NKG2C− NK cells; Trial 1,15.5%
same,percentage of TNF+ NK cells,NKG2A+/NKG2C− NK cells; Trial 1,6.18%
same,percentage of CCL3+ NK cells,NKG2A+/NKG2C− NK cells; Trial 2,73.9%
same,percentage of CD107a+ NK cells,NKG2A+/NKG2C− NK cells; Trial 2,47.2%
same,percentage of IFNG+ NK cells,NKG2A+/NKG2C− NK cells; Trial 2,26.8%
same,percentage of TNF+ NK cells,NKG2A+/NKG2C− NK cells; Trial 2,12.4%
same,percentage of CCL3+ NK cells,NKG2A+/NKG2C− NK cells; Trial 3,55.1%
same,percentage of CD107a+ NK cells,NKG2A+/NKG2C− NK cells; Trial 3,44.9%
same,percentage of IFNG+ NK cells,NKG2A+/NKG2C− NK cells; Trial 3,32.1%
same,percentage of TNF+ NK cells,NKG2A+/NKG2C− NK cells; Trial 3,19.7%
same,percentage of CCL3+ NK cells,NKG2A+/NKG2C− NK cells; Trial 4,46.5%
same,percentage of CD107a+ NK cells,NKG2A+/NKG2C− NK cells; Trial 4,37.7%
same,percentage of IFNG+ NK cells,NKG2A+/NKG2C− NK cells; Trial 4,20.1%
same,percentage of TNF+ NK cells,NKG2A+/NKG2C− NK cells; Trial 4,12.5%
same,percentage of CCL3+ NK cells,NKG2A+/NKG2C− NK cells; Trial 5,49.6%
same,percentage of CD107a+ NK cells,NKG2A+/NKG2C− NK cells; Trial 5,35.9%
same,percentage of IFNG+ NK cells,NKG2A+/NKG2C− NK cells; Trial 5,19.2%
same,percentage of TNF+ NK cells,NKG2A+/NKG2C− NK cells; Trial 5,9.62%
same,percentage of CCL3+ NK cells,NKG2A+/NKG2C− NK cells; Trial 6,33.1%
same,percentage of CD107a+ NK cells,NKG2A+/NKG2C− NK cells; Trial 6,25.7%
same,percentage of IFNG+ NK cells,NKG2A+/NKG2C− NK cells; Trial 6,9.52%
same,percentage of TNF+ NK cells,NKG2A+/NKG2C− NK cells; Trial 6,5.43%
same,binding of peptide-HLA-E complex to CD94/NKG2A normalized to a fitted Rmax,CD94/NKG2A; CD94/NKG2A concentration 0 μM,0.013
same,binding of peptide-HLA-E complex to CD94/NKG2A normalized to a fitted Rmax,CD94/NKG2A; CD94/NKG2A concentration 0.1 μM,0.015
same,binding of peptide-HLA-E complex to CD94/NKG2A normalized to a fitted Rmax,CD94/NKG2A; CD94/NKG2A concentration 0.2 μM,0.019
same,binding of peptide-HLA-E complex to CD94/NKG2A normalized to a fitted Rmax,CD94/NKG2A; CD94/NKG2A concentration 0.4 μM,0.030
same,binding of peptide-HLA-E complex to CD94/NKG2A normalized to a fitted Rmax,CD94/NKG2A; CD94/NKG2A concentration 0.8 μM,0.051
same,binding of peptide-HLA-E complex to CD94/NKG2A normalized to a fitted Rmax,CD94/NKG2A; CD94/NKG2A concentration 1.6 μM,0.086
same,binding of peptide-HLA-E complex to CD94/NKG2A normalized to a fitted Rmax,CD94/NKG2A; CD94/NKG2A concentration 3.2 μM,0.145
same,binding of peptide-HLA-E complex to CD94/NKG2A normalized to a fitted Rmax,CD94/NKG2A; CD94/NKG2A concentration 6.4 μM,0.231
same,binding of peptide-HLA-E complex to CD94/NKG2A normalized to a fitted Rmax,CD94/NKG2A; CD94/NKG2A concentration 12.8 μM,0.336
same,binding of peptide-HLA-E complex to CD94/NKG2A normalized to a fitted Rmax,CD94/NKG2A; CD94/NKG2A concentration 25.6 μM,0.472
same,binding of peptide-HLA-E complex to CD94/NKG2A normalized to a fitted Rmax,CD94/NKG2A; CD94/NKG2A concentration 51.2 μM,0.639
same,binding of peptide-HLA-E complex to CD94/NKG2A normalized to a fitted Rmax,CD94/NKG2A; CD94/NKG2A concentration 102.4 μM,0.827
same,Binding of peptide-HLA-E complexes to CD94/NKG2A normalized to a theoretical Rmax,CD94/NKG2A; CD94/NKG2A analyte concentration 0.000 μM,0.004
same,Binding of peptide-HLA-E complexes to CD94/NKG2A normalized to a theoretical Rmax,CD94/NKG2A; CD94/NKG2A analyte concentration 0.100 μM,0.005
same,Binding of peptide-HLA-E complexes to CD94/NKG2A normalized to a theoretical Rmax,CD94/NKG2A; CD94/NKG2A analyte concentration 0.200 μM,0.006
same,Binding of peptide-HLA-E complexes to CD94/NKG2A normalized to a theoretical Rmax,CD94/NKG2A; CD94/NKG2A analyte concentration 0.400 μM,0.009
same,Binding of peptide-HLA-E complexes to CD94/NKG2A normalized to a theoretical Rmax,CD94/NKG2A; CD94/NKG2A analyte concentration 0.800 μM,0.015
same,Binding of peptide-HLA-E complexes to CD94/NKG2A normalized to a theoretical Rmax,CD94/NKG2A; CD94/NKG2A analyte concentration 1.600 μM,0.026
same,Binding of peptide-HLA-E complexes to CD94/NKG2A normalized to a theoretical Rmax,CD94/NKG2A; CD94/NKG2A analyte concentration 3.200 μM,0.044
same,Binding of peptide-HLA-E complexes to CD94/NKG2A normalized to a theoretical Rmax,CD94/NKG2A; CD94/NKG2A analyte concentration 6.400 μM,0.070
same,Binding of peptide-HLA-E complexes to CD94/NKG2A normalized to a theoretical Rmax,CD94/NKG2A; CD94/NKG2A analyte concentration 12.800 μM,0.102
same,Binding of peptide-HLA-E complexes to CD94/NKG2A normalized to a theoretical Rmax,CD94/NKG2A; CD94/NKG2A analyte concentration 25.600 μM,0.143
same,Binding of peptide-HLA-E complexes to CD94/NKG2A normalized to a theoretical Rmax,CD94/NKG2A; CD94/NKG2A analyte concentration 51.200 μM,0.194
same,Binding of peptide-HLA-E complexes to CD94/NKG2A normalized to a theoretical Rmax,CD94/NKG2A; CD94/NKG2A analyte concentration 102.400 μM,0.250

# Reference: patent publication US20240092835A1, “NOVEL PEPTIDES CAPABLE OF ALTERING NK CELL ACTIVITY” (Massachusetts Institute of Technology, priority 2022, published 2024)
